Laboratory results as given in patent publication US20250313528A1, “NOVEL COMPOUND AND PHARMACEUTICAL COMPOSITION FOR PREVENTING OR TREATING PULMONARY FIBROSIS COMPRISING SAME AS ACTIVE INGREDIENT” (GIL MEDICAL CENTER, priority 2022, published 2025).

Key:
Assay type in all cases: cell-based, human
FN, COL1A1, and α-SMA [1] = assay: qRT-PCR of fibrosis-related genes in TGF-β1-induced MRC-5 cells; conditions: MRC-5, 10 μM pretreatment 1 hour, TGF-β1 1 ng/ml 48 hours, FIG. 4c/4d
Method: (§1) MRC-5 and DHLF-IPF cells were each cultured in growth medium, and the medium was removed. […] The medium was then removed, and the cells were washed once with PBS. Intracellular total RNA was extracted from the cultured cells using TRIzol reagent (TaKaRa Bio Inc., Japan) for gene expression analysis. 1 mL of TRIzol reagent was added to lyse the cells and denature the tissue. The lysate was transferred to each 1.5 mL tube, and 200 μL of chloroform was added thereto, followed by vortexing for 20 seconds to ensure complete mixing. After incubating at room temperature for 15 minutes, the mixture was centrifuged at 14,000 rpm for 20 minutes to obtain the supernatant. After adding an equal volume of isopropyl alcohol, the tubes were inverted and incubated at room temperature for 10 minutes. The sample was centrifuged at 14,000 rpm for 15 minutes to obtain an RNA pellet, which was washed by centrifugation with 70% ethanol for use on RNA at 14,000 rpm for 5 minutes, and dried for 5 minutes. The dried RNA sample was added with 20 μL of distilled water treated with 0.1% diethyl pyrocarbonate (DEPC) to dissolve the pallet and the resultant was used as a sample for cDNA synthesis. 1 μL of the same was used to measure the RNA concentration and purity at O.D. 260/280 nm using a Nanodrop.
(§2) Single-stranded cDNA synthesis was performed by mixing 1 μg of the extracted total RNA with 1 μL of oligo-d(T) primer ([…]) and 10 mM dNTP (TaKaRa Bio Inc., Japan), reacting at 65° C. for 5 minutes, followed by rapid cooling. To this template, 4 μL of 5×RT buffer, 0.5 μL of RNA inhibitor, and 100 units of RTase (TaKaRa Bio Inc., Japan) were added, and the total volume was adjusted to 20 μL using DEPC-treated distilled water. […]
(§3) Each gene expression level was measured using real-time PCR. […] The specificity of the amplified product was confirmed through melting curve analysis, and the target genes were quantified and compared using GAPDH as a control gene.

fibronectin and α-SMA [2] = assay: Western blotting of fibrosis-related proteins in TGF-β1-induced DHLF-IPF cells; conditions: TGF-β1 1 ng/ml, 10 μM, FIG. 4b
Method: (§4) Specifically, to extract fibronectin and α-SMA proteins, the cells were washed once with cold PBS and then RIPA buffer (150 mM NaCl, 0.5% Triton X-100, 50 mM Tris-HCl, pH 7.4, 25 mM NaF, 20 mM EGTA), which was added with a protease inhibitor cocktail, was added thereto to lyse the cells. Then, the proteins were quantified using a BCA protein assay kit. All protein samples were subjected to electrophoresis at 10 μg on 8% to 10% PAGE gels and then transferred to 0.2 μm PVDF membranes (EMD Millipore, MA, USA). The membranes to which the protein was transferred were blocked with 5% BSA or 5% skim milk for 1 hour, and then primary antibodies were added thereto and incubated overnight at 4° C. The following day, the membranes were washed three times with PBST, and then HRP-conjugated secondary antibodies were added and reacted at room temperature for 1 hour. The PVDF membranes prepared through such procedures were smeared with ECL (Luminata™ Crescendo, EMD Millipore) and exposed to a fluorescence reader to confirm the level of protein expression.
(§5) To compare the changes in fibrosis-related protein expression by treating normal MRC-5 and diseased DHLF-IPF cell lines induced with pulmonary fibrosis by TGF-β1 with SFN and the two candidate compounds, Western blotting was performed.
(§6) The specific experimental methods are the same as in Example 2. TGF-β1 was treated at 1 ng/ml to induce fibrosis, and sulforaphane and the two compounds each were treated at a concentration of 10 μM.

FN, COL1A1, and α-SMA [3] = assay: qRT-PCR of fibrosis-related genes in TGF-β1-induced DHLF-IPF cells; conditions: 10 μM pretreatment 1 hour, TGF-β1 1 ng/ml 48 hours, FIG. 4c/4d
Method: as §1, §2, §3

fibronectin and α-SMA [4] = assay: Western blotting of fibrosis-related proteins in TGF-β1-induced MRC-5 cells; conditions: MRC-5, TGF-β1 1 ng/ml, 10 μM, FIG. 4b
Method: Since the overexpression of extracellular matrix components such as fibronectin and α-SMA serves as an indicator of fibrotic changes in tissues, MRC-5 cells induced to undergo fibrosis by TGF-β1 were treated with each compound at different concentrations to compare the expression levels of fibronectin and α-SMA.
as §4
The specific experimental methods are the same as in Example 2, and sulforaphane was treated at a concentration of 20 μM, Compound 1 at 5 μM, 10 μM, and 20 μM, and Compound 2 at 2.5 μM, 5 μM, and 10 μM, respectively.
as §5, §6

C[S+]([O-])CCCCN=C=S (stereo not shown) [sulforaphane, reference compound]
reduced: gene expression levels of FN, COL1A1, and α-SMA (FN, COL1A1, and α-SMA [1]) | expression levels of fibronectin and α-SMA protein (fibronectin and α-SMA [2]) | gene expression levels of FN, COL1A1, and α-SMA (FN, COL1A1, and α-SMA [3]) | expression levels of fibronectin and α-SMA protein (fibronectin and α-SMA [4])
